According to PubChem BioAssay (NCI):
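Values below derive from 48-hour exposures of cells grown in 96-well plates, with endpoints linearly interpolated between the two concentrations bracketing the appropriate inhibition level. TGI: total growth inhibition.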

Experiments:
Assay in all cases: growth of human tumour cells (NCI), 48 h
[1] = test system: A498 renal
[2] = test system: BT-549 breast
[3] = test system: CAKI-1 renal
[4] = test system: CCRF-CEM leukemia
[5] = test system: COLO 205 colon
[6] = test system: HCT-116 colon
[7] = test system: HL-60(TB) leukemia
[8] = test system: HOP-62 NSCLC
[9] = test system: HOP-92 NSCLC
[10] = test system: HS 578T breast
[11] = test system: HT29 colon
[12] = test system: K-562 leukemia
[13] = test system: MCF7 breast
[14] = test system: NCI-H460 lung
[15] = test system: NCI/ADR-RES ovarian
[16] = test system: OVCAR-3 ovarian
[17] = test system: OVCAR-4 ovarian
[18] = test system: PC-3 prostate
[19] = test system: RXF 393 renal
[20] = test system: SF-268 CNS
[21] = test system: SF-295 CNS
[22] = test system: SK-MEL-28 melanoma
[23] = test system: SK-MEL-5 melanoma
[24] = test system: SK-OV-3 ovarian
[25] = test system: SN12C renal
[26] = test system: SNB-19 CNS
[27] = test system: SNB-75 CNS
[28] = test system: SR leukemia
[29] = test system: SW-620 colon
[30] = test system: T-47D breast
[31] = test system: TK-10 renal
[32] = test system: UACC-257 melanoma
[33] = test system: UACC-62 melanoma
[34] = test system: UO-31 renal

## CC(C)CCCC(C)[C@H]1CC[C@H]2N=C(NCc3ccccc3)CCC[C@]12C (some centres undefined)
[1]
  TGI: 4.77 µM
[2]
  TGI: 8.19 µM
[3]
  TGI: 5.65 µM
[4]
  TGI: 5.42 µM
[5]
  TGI: 2770 nM
[6]
  TGI: > 100 µM
[7]
  TGI: 7.63 µM
[8]
  TGI: 8.56 µM
[9]
  TGI: 5.67 µM
[10]
  TGI: 9.48 µM
[11]
  TGI: 3.17 µM
[12]
  TGI: 3.23 µM
[13]
  TGI: 3.29 µM
[14]
  TGI: 3.34 µM
[15]
  TGI: 3.15 µM
[16]
  TGI: 5.33 µM
[17]
  TGI: 8.75 µM
[18]
  TGI: 4.93 µM
[19]
  TGI: 3.14 µM
[20]
  TGI: 8.92 µM
[21]
  TGI: 3.62 µM
[22]
  TGI: 2960 nM
[23]
  TGI: 3.06 µM
[24]
  TGI: 20.1 µM
[25]
  TGI: 3.62 µM
[26]
  TGI: 8.75 µM
[27]
  TGI: 3.52 µM
[28]
  TGI: 7.84 µM
[29]
  TGI: 4.45 µM
[30]
  TGI: 8.01 µM
[31]
  TGI: 5.45 µM
[32]
  TGI: 5.24 µM
[33]
  TGI: 3.48 µM
[34]
  TGI: 8.29 µM
